Reference: US20160145244A1, “CERTAIN PROTEIN KINASE INHIBITORS” (FOCHON PHARMA, INC., priority 2014, published 2016)

Columns and labels:
SUP-M2 cells = assay: Cell proliferation assay, SUP-M2 cells (CCK-8); format: cell-based; conditions: 72 h exposure, Cell Counting Kit-8 assay
Description: (§1) NCI-H3122 or SUP-M2 Cells were plated into 96-well plates (3000-8000/well) in complete medium. After incubation overnight, cells were exposed to various concentrations of compound for further 72 h. Cell proliferation was evaluated by SRB assay (for NCI-H3122 cell) or Cell Counting Kit-8 assay (CCK-8, DOJINDO Molecular Technologies, Inc.) (for SUP-M2 cell). ICso values were calculated by concentration-response curve fitting using a SoftMax pro-based four-parameter method. Each IC50 value was expressed as mean±SD from three separate experiments.

NCI-H3122 cells = assay: Cell proliferation assay, NCI-H3122 cells (SRB); format: cell-based; conditions: Homo sapiens, 72 h exposure
Description: as §1

IC50 (NCI-H3122 cells)	SMILES	IC50 (SUP-M2 cells)
52.6 nM	Cc1cc(Nc2ncnc(Nc3ccccc3S(=O)(=O)C(C)C)n2)c2c(c1C1CCNCC1)C[C@@H](C)O2 [Example 1, (R)—N^2-(2,5-dimethyl-4-(piperidin-4-yl)-2,3-dihydrobenzofuran-7-yl)-N^4-(2-(isopropylsulfonyl)phenyl)-1,3,5-triazine-2,4-diamine]	99.3 nM
20.8 nM	Cc1cc(Nc2ncnc(Nc3ccccc3S(=O)(=O)C(C)C)n2)c2c(c1C1CCN(C)CC1)C[C@@H](C)O2 [Example 2, (R)—N^2-(2,5-dimethyl-4-(1-methylpiperidin-4-yl)-2,3-dihydrobenzofuran-7-yl)-N^4-(2-(isopropyl-sulfonyl)phenyl)-1,3,5-triazine-2,4-diamine]	54.4 nM
14.4 nM	CC(=O)N1CCC(c2c(C)cc(Nc3ncnc(Nc4ccccc4S(=O)(=O)C(C)C)n3)c3c2C[C@@H](C)O3)CC1 [Example 3, (R)-1-(4-(7-((4-((2-(isopropylsulfonyl)phenyl)amino)-1,3,5-triazin-2-yl)amino)-2,5-dimethyl-2,3-dihydrobenzofuran-4-yl)piperidin-1-yl)ethan-1-one]	50.4 nM

Continued, compound first:

SMILES	IC50 (NCI-H3122 cells)	IC50 (SUP-M2 cells)
CCOC(=O)CN1CCC(c2c(C)cc(Nc3ncnc(Nc4ccccc4S(=O)(=O)C(C)C)n3)c3c2C[C@@H](C)O3)CC1 [Example 6, Ethyl (R)-2-(4-(7-((4-((2-(isopropylsulfonyl)phenyl)amino)-1,3,5-triazin-2-yl)amino)-2,5-dimethyl-2,3-dihydrobenzofuran-4-yl)piperidin-1-yl)acetate]	–	111 to 333 nM
Cc1cc(Nc2ncnc(Nc3ccccc3S(=O)(=O)C(C)C)n2)c2c(c1C1CCN(S(C)(=O)=O)CC1)C[C@@H](C)O2 [Example 4, (R)—N^2-(2,5-dimethyl-4-(1-(methylsulfonyl)piperidin-4-yl)-2,3-dihydrobenzofuran-7-yl)-N^4-(2-(isopropylsulfonyl)phenyl)-1,3,5-triazine-2,4-diamine]	–	111 to 333 nM
Cc1cc(Nc2ncnc(Nc3ccccc3S(=O)(=O)C(C)C)n2)c2c(c1C1CCN(CC(=O)N(C)C)CC1)C[C@@H](C)O2 [Example 7, (R)-2-(4-(7-((4-((2-(isopropylsulfonyl)phenyl)amino)-1,3,5-triazin-2-yl)amino)-2,5-dimethyl-2,3-dihydrobenzofuran-4-yl)piperidin-1-yl)-N,N-dimethylacetamide]	–	111 to 333 nM
Cc1cc(Nc2ncnc(Nc3ccccc3S(=O)(=O)C(C)C)n2)c2c(c1C1CCN(C(=O)CO)CC1)C[C@@H](C)O2 [Example 9, (R)-2-hydroxy-1-(4-(7-((4-((2-(isopropylsulfonyl)phenyl)amino)-1,3,5-triazin-2-yl)amino)-2,5-dimethyl-2,3-dihydrobenzofuran-4-yl)piperidin-1-yl)ethan-1-one]	15.9 nM	33.7 nM
Cc1cc(Nc2ncnc(Nc3ccccc3S(=O)(=O)C(C)C)n2)c2c(c1C1CCN(C(=O)[C@H](C)N)CC1)C[C@@H](C)O2 [Example 11, (S)-2-amino-1-(4-((R)-7-((4-((2-(isopropylsulfonyl)phenyl)amino)-1,3,5-triazin-2-yl)amino)-2,5-dimethyl-2,3-dihydrobenzofuran-4-yl)piperidin-1-yl)propan-1-one]	25.7 nM	67.1 nM
Cc1cc(Nc2ncnc(Nc3ccccc3S(=O)(=O)C(C)C)n2)c2c(c1C1CCN(C(=O)CN)CC1)C[C@@H](C)O2 [Example 10, (R)-2-amino-1-(4-(7-((4-((2-(isopropylsulfonyl)phenyl)amino)-1,3,5-triazin-2-yl)amino)-2,5-dimethyl-2,3-dihydrobenzofuran-4-yl)piperidin-1-yl)ethan-1-one]	134 nM	79.6 nM
Cc1cc(Nc2ncnc(Nc3ccccc3S(=O)(=O)C(C)C)n2)c2c(c1C1CCN(CCS(C)(=O)=O)CC1)C[C@@H](C)O2 [Example 8, (R)—N^2-(2,5-dimethyl-4-(1-(2-(methylsulfonyl)ethyl)piperidin-4-yl)-2,3-dihydrobenzofuran-7-yl)-N^4-(2-(isopropylsulfonyl)phenyl)-1,3,5-triazine-2,4-diamine]	–	111 to 333 nM
Cc1cc(Nc2ncnc(Nc3ccccc3S(=O)(=O)C(C)C)n2)c2c(c1C1CCN(CCO)CC1)C[C@@H](C)O2 [Example 5, (R)-2-(4-(7-((4-((2-(isopropylsulfonyl)phenyl)amino)-1,3,5-triazin-2-yl)amino)-2,5-dimethyl-2,3-dihydrobenzofuran-4-yl)piperidin-1-yl)ethan-1-ol]	57.7 nM	70 nM
